Data on 2 compounds can be found in patent US20080161404A1 (ASTRAZENECA AB, priority 2005, published 2008).

The conditions of data set [1]: cited from earlier work.
The subject of the next data set is serum PSA levels. Briefly: Change in serum PSA levels in M0/M1 prostate cancer patients (Example 1). In kind it is in vivo, human. Here is the method:
Patients had histologically or cytologically confirmed M0 (T3 or T4) or M1 prostate cancer and a PSA level ≧20 ng/mL.

In data set [2] the test system is advanced prostate cancer (M0 or M1). In words: Survival (Kaplan-Meier time to death) versus castration in patients with advanced prostate cancer (Example 1). To be noted: 450-600 mg.
Method: Tolerability was similarly assessed at 450 mg/day (3 tablets) and 600 mg/day (4 tablets).
After objective disease progression, patients were followed up every 3 months for survival and/or adverse event data.
Results are presented as for both the overall patient population and also by disease stage (M0 or M1).
A short description of data set [3]: Clinical pharmacokinetics of (R)-bicalutamide (Css, t1/2) in prostate cancer patients given bicalutamide 300-600 mg once daily (Example 1). Conditions: for Steady state plasma conc. geometric mean: (R)-bicalutamide. In kind it is in vivo, human. As to the method:
Plasma samples were stored at −20° C. until analysis. […] Quantification of the enantiomers was achieved using ultra-violet absorbance.
Method: Assays were performed using 0.5 ml plasma aliquots. […] A further control compound (internal standard) was added to each sample, along with 1.5 ml of pH 7 0.05M phosphate buffer (Electronic Instruments Ltd.) and 6 mls of ethyl acetate. The samples were mixed and then centrifuged and a 5 ml aliquot of the ethyl acetate layer (upper layer) was removed and evaporated to dryness in a polypropylene tube. The residue was re-dissolved in 400 μl of water:acetonitrile (70:30 v/v).
The fraction was evaporated to dryness and reconstituted in 400 μl of an HPLC eluent; 0.02 M pH 7 phosphate buffer; acetonitrile (85:15 v/v). 200 μl of the reconstituted fraction was then injected onto the chiral chromatographic system.

“And” between values parts separate entries of the source, which are not always exact repeats. Identical values can stand only once. Like-named read-outs stand apart in the source and are kept apart here.

As for “4′-cyano-α′,α′,α′-trifluoro-3-(4-fluorophenylsulphonyl)-2-hydroxy-2-methylpropiono-m-toluidide [Bicalutamide]”, the “t1/2 of (R)-bicalutamide” value in data set [1] (bicalutamide doses of 10-200 mg) is 150 to 213 h. In addition, the “mean steady state plasma concentration of R-bicalutamide” value in data set [1] (patients, 150 mg daily) was 21.6 µg/mL and 21 µg/mL; in data set [3] (patients, conventional tablets, doses of 300 mg/day and above (300-600 mg)), 31 to 36 µg/mL. In addition, the “plasma concentration of (R)-bicalutamide (Css)” value in data set [1] (patients, bicalutamide 200 mg) was 28900 ng/mL. In addition, the “percentage decrease in PSA” value in the data set on serum PSA levels (Week 12, bicalutamide 300 mg) is on record as 93%; in the data set on serum PSA levels (Week 12, bicalutamide 450 mg), 95%; with serum PSA levels (Week 12, bicalutamide 600 mg), 96%. The “percentage reduction in geometric mean PSA compared with castration group” value in the data set on serum PSA levels (baseline to Week 4) is on record as “greater percentage reductions in geometric mean PSA values”. For the same compound, the “events (deaths), share of patients” value in data set [2] (M0 patients, 28/74) is recorded as 37.8%; in data set [2] (M1 patients, 43/63), 68.3%; in data set [2] (all patients, median 5 years follow up, 71/137), 51.8%. Further, the “Steady state plasma conc. geometric mean” value in data set [3] (300 mg once daily, 18 patients) came out at 35 µg/mL; in data set [3] (450 mg once daily, 82 patients), 31 µg/mL; in data set [3] (600 mg once daily, 34 patients), 36 µg/mL. For the same compound, in data set [3] (doses ≥300 mg vs 150 mg (21.6 μg/mL)), the “plasma concentration of (R)-bicalutamide higher than with bicalutamide 150 mg” value is on record as “approximately 50%”. Further, in data set [3] (doses ≥300 mg vs 200 mg (28.9 μg/mL)), the “plasma concentration of (R)-bicalutamide higher than with bicalutamide 200 mg” value is “approximately 15%”.

Take `C[C@](O)(CS(=O)(=O)c1ccc(F)cc1)C(=O)Nc1ccc(C#N)c(C(F)(F)F)c1` [R-Bicalutamide]: the “share of the total circulating enantiomers at steady state” value in data set [1] (steady state) is given as “approximately 99%”.
